Laboratory results as given in article PMC9092470, “Understanding p300-transcription factor interactions using sequence variation and hybridization†” (RSC Chemical Biology, 2022).

How the values were obtained:
[1] = biological target: T1, p300 (CH1 domain, residues 330–420) (Homo sapiens, UniProt Q09472); experiment: ITC of chemically synthesized HIF-1α, CITED2 and CITIF peptides binding to p300; conditions: ITC, 35 °C, 40 mM sodium phosphate, pH 7.5, 100 mM NaCl, 1 mM DTT, 5 μM protein in cell, 60 μM ligand in syringe
T1 construct: GST (N, cleaved yes); made in house; host or cells: E. coli BL21 pLysS (pGEX-4T1-p300)
Procedure: Raw ITC (upper) data and fitted thermogram (lower) (40 mM sodium phosphate, pH 7.5 100 mM NaCl, 1 mM DTT buffer using 5 μM protein in the cell and 60 μM ligand in the syringe at 35 °C) error bars represent the estimated integration errors; (b) Thermodynamic signatures for each interaction.
Figure S8 (a) Sequences of the truncated CITED2 peptides and isothermal titration […]
µM peptide in the syringe. All measurements were carried out 40 mM sodium phosphate, pH 7.5 100 mM NaCl, 1 mM DTT buffer at 35°C. Error bars represent the estimated integration […]
Table S2 Thermodynamic parameters for shortened CITED2 sequences. 68% confidence intervals for the fitting are shown in brackets. Data fitted to a single binding site model, fixed 1:1 stoichiometry with incompetent protein fraction as an adjustable parameter. […]
(§1) Isothermal titration calorimetry
(§2) Prior to ITC measurement p300 CH1 was dialysed or run on S75 column in the buffer used for titration, and the same buffer was used to dissolve the pure peptides. Experiments with […]
(§3) MicroCal iTC200 instrument with 10 µM protein in the cell and 100 µM ligand in the syringe at 37°C, using 2 µl injections and 120 or 180 s spacing between injections. Experiments with the […]
(§4) instrument using 3-5 µM protein in the cell and 40-60 µM ligand in the syringe at 35°C, using 5 µl injections and 180 s spacing between injections, for 40 injections. Titrations were performed in 40 mM Na-phosphate, pH 7.5 100 mM NaCl, 1 mM DTT buffer except for GFP-HIF-1α and variants for which 25 mM Tris-HCl, 150 mM NaCl, 1mM DTT, pH 7.4 buffer was used. Data were analysed using NITPIC3 and fitted using SEDPHAT4 to a single binding site model (fixed 1:1 stoichiometry), with baseline and incompetent protein fraction as adjustable parameters. 68 % confidence intervals for the fitted values were determined using the automatic confidence interval search implemented in SEDPHAT. Figures were prepared using […]

[2] = biological target: T1, p300 (CH1 domain, residues 330–420); experiment: ITC of expressed HIF-1α, CITED2 and CITIF peptides binding to p300; conditions: ITC, expressed peptides, conditions as Fig. S6 (40 mM sodium phosphate, pH 7.5, 100 mM NaCl, 1 mM DTT, 35°C)
Procedure: We hypothesized that it would be possible to enhance the affinity of HIF-1α for p300 by hybridising key regions of both CITED2 and HIF-1α (see later). We first measured the affinity of the parent peptides. A particular difficulty in comparing these peptide sequences is the different length used in different studies.[28,33,35,36] […]
data and fitted thermogram (lower) (40 mM sodium phosphate, pH 7.5 100 mM NaCl, 1 mM DTT buffer using 5 µM protein in the cell and 60 µM ligand in the syringe at 35°C); (b) Thermodynamic signatures for each interaction. […]
as §1, §2, §3, §4

[3] = biological target: T2, CITED2216-259 /p300 complex (Homo sapiens, UniProt Q09472); experiment: Competition ITC: HIF-1α776-826 titrated to preformed CITED2216-259/p300 complex; type: binding; conditions: titrated to CITED2216-259/p300 complex
T2 construct: GST (N, cleaved yes); made in house; host or cells: p300: E. coli BL21 pLysS (pGEX-4T1-p300); CITED2 peptide: chemical synthesis
Procedure: (§5) Figure S7Apparent KD fits for the competition ITC experiment using a competition interaction model. p300/ligand complexes were prepared by titrating the appropriate ligand first to p300 in the cell using 3-5 µM protein concentration, the titration stopped when it reached close to […]
(§6) (Table S5) Then it was titrated with the competitor ligand using 30-60 µM concentration in the syringe, 5 or 10 uL injections with 180-240 s spacing. Background titrations were performed without p300 in the cell and subtracted from the measurements. Apparent KD,app and ΔH app values data were fitted to a competition model (Fig. S17) in SEDPHAT. Error bars represent the estimated integration errors.
(1 picture or pasted object on this page, not shown here)
Table S1 Apparent KD values and thermodynamic parameters for competition ITC experiments derived from fitting the data to a competition model depicted in Fig. S17. confidence intervals of the binding parameters are shown in brackets. […]
as §1
Prior to ITC measurement p300 CH1 was dialysed or run on S75 column in the buffer used for titration, and the same buffer was used to dissolve the pure peptides. […]
37°C, using 2 µl injections and 120 or 180 s spacing between injections. Experiments with the […]
as §4
Competition ITC measurements
Competition ITC measurements were performed in Microcal VP ITC. […]

[4] = biological target: T3, p300 (Homo sapiens, UniProt Q09472); experiment: Global fitting of ITC titrations with ternary complex model: binary binding parameters
T3 construct: GST (N, cleaved yes); made in house; host or cells: E. coli BL21 pLysS (pGEX-4T1-p300)

[5] = biological target: T4, HIF-1α786-826/p300 complex (Homo sapiens, UniProt Q09472); experiment: Competition ITC: CITED2 peptide titrated to preformed p300/HIF-1α786–826 complex; type: binding; conditions: titrated to HIF-1α786-826/p300 complex, fitted with fixed KD = 42.9 nM and ΔH = -25.8 kcal/mol for HIF-1α786-826, read-out: KD,app CITED2
T4 construct: GST (N, cleaved yes); made in house; host or cells: p300: E. coli BL21 pLysS (pGEX-4T1-p300); HIF-1α peptide: chemical synthesis
Procedure: as §5, §6
(1 picture or pasted object on this page, not shown here) […]
as §4, with “Titrations were performed in 40 mM Na-phosphate, pH 7.5 100 mM NaCl, 1 mM DTT buffer except for GFP-HIF-1α and variants for which 25 mM Tris-HCl, 150 mM NaCl, 1mM DTT, pH 7.4 buffer was used.” left out, “SEDPHAT.” for “SEDPHAT. Figures were prepared using”

[6] = biological target: p300 CH1 (Homo sapiens) (UniProt Q09472); experiment: anisotropy; conditions: cited from earlier work
[7] = biological target: GST-tagged p300 CH1 domain (residues 330–420) (UniProt Q09472); experiment: SEC; size exclusion chromatography of the GST fusion (protein characterization, Fig. S15)
[8] = biological target: T5, GST-p300 (GST-tagged p300 CH1 domain, residues 330-420) (human, UniProt Q09472 330-420); experiment: fluorescence polarisation; fluorescence anisotropy competition; 5 nM FAM-HIF786-826 as tracer, two-fold dilution series of the competitor from 10 µM over 24 points; 25 mM Tris-HCl, 150 mM NaCl, 1 mM DTT, pH 7.4; concentration of p300 not stated; conditions: both partners purified
T5 construct: human p300, CH1 domain (zinc finger, TAZ type 1), residues 330-420; For the fluorescence anisotropy experiments the GST cleavage step was omitted (D1:p17); source: E. coli (pGEX-6P-2 in Rosetta 2 or pGEX-4T-1 in BL21 pLysS), glutathione beads, eluted with glutathione, SEC

[9] = biological target: T6, p300 CH1 domain (residues 330–420) (UniProt Q09472 330-420); experiment: ITC; peptide in the syringe, p300 in the cell (Fig. 4: 5 μM protein, 60 μM ligand); 40 mM sodium phosphate, pH 7.5, 100 mM NaCl, 1 mM DTT, 35 °C; single-site model, fixed 1:1 stoichiometry; conditions: both partners purified
T6 construct: p300 CH1 domain, residues 330–420; The cleavage of GST is said for the anisotropy control; also called p300 with the GST tag cleaved; source: recombinantly expressed as a fusion protein with GST, GST tag cleaved

[10] = biological target: T6, p300 CH1 domain (residues 330–420); experiment: ITC; competition: CITED2 peptides titrated into the preformed p300/HIF-1α 776–826 complex (1.2–1.6 equivalents of HIF-1α); 40 mM sodium phosphate, pH 7.5, 100 mM NaCl, 1 mM DTT, 35 °C; competitive binding model; apparent; conditions: both partners purified
[11] = 68% confidence interval in brackets
[12] = global fit 1 (CITED224-259 and HIF776-826 titrations)
[13] = global fit 2 (CITED216-269 and HIF776-826 titrations)
[14] = global fit 3 (CITED2216-248 and HIF776-826 titrations)

T2 sequence (Q09472 330-420, one chain of several): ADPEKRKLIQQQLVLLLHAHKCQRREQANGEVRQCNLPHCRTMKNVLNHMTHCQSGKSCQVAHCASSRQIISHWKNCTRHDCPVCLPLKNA
T3 sequence (Q09472 330-420): as the sequence (Q09472 330-420, one chain of several) above
T1 sequence (Q09472 330-420): as the sequence (Q09472 330-420, one chain of several) above
T6 sequence (Q09472 330-420): as the sequence (Q09472 330-420, one chain of several) above
T4 sequence (Q09472 330-420, one chain of several): as above
T5 sequence (Q09472 330-420): as the sequence (Q09472 330-420, one chain of several) above

In the case of CC[C@H](C)[C@H](NC(=O)[C@@H]1CCCN1C(=O)[C@H](C)NC(=O)[C@H](CC(N)=O)NC(=O)[C@@H](NC(=O)[C@H](CCC(=O)O)NC(=O)[C@H](CS)NC(=O)[C@H](CC(=O)O)NC(=O)[C@H](Cc1ccc(O)cc1)NC(=O)[C@H](CO)NC(=O)[C@@H](NC(=O)[C@H](CC(C)C)NC(=O)[C@H](CCC(N)=O)NC(=O)[C@@H]1CCCN1C(=O)[C@H](CC(C)C)NC(=O)CNC(=O)[C@H](CO)NC(=O)[C@H](CCC(=O)O)NC(=O)[C@H](CC(=O)O)NC(=O)[C@H](CCSC)NC(=O)[C@H](CO)NC(=O)[C@H](CCC(N)=O)NC(=O)CNC(=O)[C@H](CC(C)C)NC(=O)[C@H](CC(C)C)NC(=O)[C@H](CCCNC(=N)N)NC(=O)[C@H](CS)NC(=O)[C@H](C)NC(=O)[C@H](CC(C)C)NC(=O)[C@H](CC(=O)O)NC(=O)[C@H](CO)NC(=O)[C@H](CO)NC(=O)CNC(=O)[C@@H]1CCCN1C(=O)CN)[C@@H](C)O)C(C)C)C(=O)N[C@@H](CCC(N)=O)C(=O)NCC(=O)N[C@@H](CO)C(=O)N[C@@H](CCCNC(=N)N)C(=O)N[C@@H](CC(N)=O)C(=O)N[C@@H](CC(C)C)C(=O)N[C@@H](CC(C)C)C(=O)N[C@@H](CCC(N)=O)C(=O)NCC(=O)N[C@@H](CCC(=O)O)C(=O)N[C@@H](CCC(=O)O)C(=O)N[C@@H](CC(C)C)C(=O)N[C@@H](CC(C)C)C(=O)N[C@@H](CCCNC(=N)N)C(=O)N[C@@H](C)C(=O)N[C@@H](CC(C)C)C(=O)N[C@@H](CC(=O)O)C(=O)N[C@@H](CCC(N)=O)C(=O)N[C@H](C(=O)N[C@@H](CC(N)=O)C(=O)O)C(C)C [HIF-1α776–826], the “ΔS, synthetic peptides” value [1] is reported as −41 cal mol^−1 K^−1, the “ΔH, synthetic peptides” value [1, 11] is reported as -22.9 kcal/mol and the “ΔS, expressed peptides” value [2] is reported as −39.2 cal mol^−1 K^−1. The “ΔH, expressed peptides” value [2, 11] was -22.2 kcal/mol, the Kd ([3]; fixed KD = 26.3 nM for CITED2, treat with caution, small heat change, read-out: KD,app HIF-1α) was 695 nM and the “ΔHapp, HIF-1α” value ([3]; treat with caution) was -26.37 kcal/mol. The “ΔSapp, HIF-1α” value ([3]; treat with caution) was -57.4 cal/mol/K, the ΔH [4, 12] was -22.7 kcal/mol and the ΔS [4, 12] was -40.3 cal mol-1 K-1. It also gave a ΔH [4, 13] of -22.9 kcal/mol, a ΔS [4, 13] of -41.1 cal mol-1 K-1 and a ΔH [4, 14] of -27.8 kcal/mol. It also gave a ΔS [4, 14] of -57.4 cal mol-1 K-1.

“Ac-DEEVLMSLVIEMGLDRIKELPELWLGQNEFDFMTDF-NH2 [CITED2_224–259]” gave a Kd [5] of 8.4 nM.

For CITED2 216-269 (from UniProt Q99967), the Kd [6] is listed as 10 nM.

“GST-tagged p300 CH1 domain (residues 330–420) (from UniProt Q09472 330-420) (domain or fragment)” showed a stoichiometry N [7] of 2.

For HIF-1α 776-826 (from UniProt Q16665), the Kd [6] is listed as 10 nM.

B1: HIF-1α786-826 (expressed, His10-GFP cleaved off) (peptide)
peptide: GPGSSMDESGLPQLTSYDCEVNAPIQGSRNLLQGEELLRALDQVN
notes: four residues (Gly-Pro-Gly-Ser) left from the PreScission protease site; source: E. coli Rosetta 2, from inclusion bodies, His-trap, on-column PreScission cleavage, RP-HPLC; not shown: GFP, N-terminal, cleaved
Molecule B1 has an IC50 [8] of 59 ± 6 nM.

With NVIDTDFIDEEVLMSLVIEMGLDRIKELPELWL (peptide, UniProt Q99967 216-248, looked up) [CITED2 216–248 (C-terminally truncated CITED2)] the Kd [9] was 0.303 µM and the “KD,app (competition against the preformed p300/HIF-1α 776–826 complex)” value [10] was 46.9 nM.

Molecule DEEVLMSLVIEMGLDRIKELPELWL (peptide, UniProt Q99967 224-248, looked up) [CITED2 224–248 (truncated CITED2)] has a Kd [9] of 10.4 µM.
